Reference: ChEMBL document CHEMBL1150292, “4-benzyl-1H-imidazoles with oxazoline termini as histamine H3 receptor agonists” (J Med Chem, 2008)

What was measured:
[1] = target: T1, Histamine H3 receptor (Homo sapiens, UniProt Q9Y5N1); assay: Displacement of [3H]N-alpha-methylhistamine from human histamine H3 receptor expressed in CHO cells; assay type: cell-based
[2] = target: Histamine H3 receptor (Cavia porcellus) (UniProt Q9JI35); conditions: Ileum
[3] = target: T2, Histamine H3 receptor (Cavia porcellus, UniProt Q9JI35); assay: Activity at histamine H3 receptor in guinea pig ileum; assay type: tissue-based
[4] = target: T1, Histamine H3 receptor; assay: Agonist activity at human histamine H3 receptor assessed as effect on [35S]GTPgammaS binding; assay type: functional
[5] = target: Histamine H3 receptor (Rattus norvegicus) (UniProt Q9QYN8); conditions: Cortex
[6] = target: Histamine H3 receptor (Rattus norvegicus, UniProt Q9QYN8); assay: Agonist activity at histamine H3 receptor in rat cortex
[7] = target: T1, Histamine H3 receptor; assay: Agonist activity at human histamine H3 receptor assessed as beta galactosidase activity; assay type: functional
[8] = target: T3, Histamine H4 receptor (Homo sapiens, UniProt Q9H3N8); assay: Displacement of [3H]histamine from human histamine H4 receptor expressed in CHO cells; assay type: cell-based
[9] = target: T2, Histamine H3 receptor; assay: Antagonist activity at guinea pig histamine H3 receptor assessed as inhibition of electrically induced twitch contraction; assay type: functional; conditions: read-out: pA2 (converted)
[10] = target: Cytochrome P450 2D6 (Homo sapiens, UniProt P10635); assay: Inhibition of CYP2D6 in human liver microsomes assessed as dextromethorphan O-demethylase activity; assay type: ADME, Microsome
[11] = Inhibition of […] in human liver microsomes assessed as midazolam 1'-hydroxylase activity; assay type: ADME, Microsome
[12] = target: Histamine H1 receptor (Homo sapiens) (UniProt P35367); assay: Inhibition of histamine H1 receptor at 10 uM
[13] = target: Histamine H2 receptor (Homo sapiens) (UniProt P25021); assay: Inhibition of histamine H2 receptor at 10 uM
[14] = target: T3, Histamine H4 receptor; assay: Displacement of [3H]histamine from human histamine H4 receptor expressed in CHO cells at 10 uM; assay type: cell-based

Cytochrome P450 2D6, sequence (P10635 whole entry): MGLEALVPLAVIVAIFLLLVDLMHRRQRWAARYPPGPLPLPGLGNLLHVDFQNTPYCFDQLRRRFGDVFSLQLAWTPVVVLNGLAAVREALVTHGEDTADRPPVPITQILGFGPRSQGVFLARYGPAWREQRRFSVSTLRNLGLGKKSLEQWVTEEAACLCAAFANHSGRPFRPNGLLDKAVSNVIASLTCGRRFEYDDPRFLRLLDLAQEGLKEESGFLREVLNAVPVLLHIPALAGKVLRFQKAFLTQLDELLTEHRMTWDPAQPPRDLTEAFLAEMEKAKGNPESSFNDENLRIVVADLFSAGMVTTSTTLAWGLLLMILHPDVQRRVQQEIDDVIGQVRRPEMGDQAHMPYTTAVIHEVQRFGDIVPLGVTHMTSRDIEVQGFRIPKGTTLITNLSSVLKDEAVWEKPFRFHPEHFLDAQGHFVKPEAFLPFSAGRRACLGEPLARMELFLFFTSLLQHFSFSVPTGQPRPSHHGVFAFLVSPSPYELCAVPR
T2 sequence (Q9JI35 whole entry): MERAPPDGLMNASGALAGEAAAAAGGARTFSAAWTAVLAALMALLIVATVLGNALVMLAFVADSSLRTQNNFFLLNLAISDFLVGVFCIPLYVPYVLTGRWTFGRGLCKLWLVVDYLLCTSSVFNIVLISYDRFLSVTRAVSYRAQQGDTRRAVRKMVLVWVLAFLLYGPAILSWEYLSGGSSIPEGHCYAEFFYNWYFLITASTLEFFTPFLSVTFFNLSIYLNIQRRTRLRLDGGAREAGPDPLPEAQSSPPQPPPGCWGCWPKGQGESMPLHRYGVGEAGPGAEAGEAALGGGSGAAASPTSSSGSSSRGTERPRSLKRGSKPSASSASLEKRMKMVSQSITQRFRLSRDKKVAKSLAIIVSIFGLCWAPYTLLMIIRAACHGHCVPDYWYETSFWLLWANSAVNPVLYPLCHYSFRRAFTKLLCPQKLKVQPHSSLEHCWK
Histamine H2 receptor (Homo sapiens), sequence (P25021 whole entry): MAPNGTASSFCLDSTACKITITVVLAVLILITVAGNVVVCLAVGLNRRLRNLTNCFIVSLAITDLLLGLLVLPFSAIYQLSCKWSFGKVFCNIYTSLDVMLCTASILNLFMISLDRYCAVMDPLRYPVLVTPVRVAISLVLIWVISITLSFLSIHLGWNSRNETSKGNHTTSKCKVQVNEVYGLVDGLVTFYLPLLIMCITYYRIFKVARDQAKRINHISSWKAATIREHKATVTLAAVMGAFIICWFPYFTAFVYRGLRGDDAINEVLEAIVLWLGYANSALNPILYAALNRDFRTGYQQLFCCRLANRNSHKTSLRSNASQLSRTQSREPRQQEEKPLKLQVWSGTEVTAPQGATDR
T3 sequence (Q9H3N8 whole entry): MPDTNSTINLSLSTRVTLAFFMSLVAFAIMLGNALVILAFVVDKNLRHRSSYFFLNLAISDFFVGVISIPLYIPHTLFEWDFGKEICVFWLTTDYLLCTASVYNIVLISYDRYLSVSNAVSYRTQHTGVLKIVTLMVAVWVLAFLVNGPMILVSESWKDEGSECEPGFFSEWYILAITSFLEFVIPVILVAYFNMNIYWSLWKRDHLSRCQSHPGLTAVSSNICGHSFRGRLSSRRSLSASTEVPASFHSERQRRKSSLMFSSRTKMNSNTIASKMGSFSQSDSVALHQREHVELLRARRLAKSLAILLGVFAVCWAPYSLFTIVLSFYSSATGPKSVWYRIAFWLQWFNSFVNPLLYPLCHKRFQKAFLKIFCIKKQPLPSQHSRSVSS
Histamine H1 receptor (Homo sapiens), sequence (P35367 whole entry): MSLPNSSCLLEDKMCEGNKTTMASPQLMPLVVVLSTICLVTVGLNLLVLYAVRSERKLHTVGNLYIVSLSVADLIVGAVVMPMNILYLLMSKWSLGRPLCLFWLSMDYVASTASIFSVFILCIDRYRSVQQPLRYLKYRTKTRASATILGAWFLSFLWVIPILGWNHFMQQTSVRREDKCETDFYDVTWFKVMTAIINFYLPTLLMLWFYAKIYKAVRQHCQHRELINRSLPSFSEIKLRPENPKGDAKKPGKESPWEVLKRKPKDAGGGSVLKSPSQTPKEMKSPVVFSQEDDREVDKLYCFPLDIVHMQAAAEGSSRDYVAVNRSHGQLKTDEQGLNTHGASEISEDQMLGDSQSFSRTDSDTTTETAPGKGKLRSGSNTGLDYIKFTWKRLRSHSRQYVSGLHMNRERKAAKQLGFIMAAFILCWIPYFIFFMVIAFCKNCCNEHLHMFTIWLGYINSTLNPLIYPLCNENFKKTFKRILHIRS
T1 sequence (Q9Y5N1 whole entry): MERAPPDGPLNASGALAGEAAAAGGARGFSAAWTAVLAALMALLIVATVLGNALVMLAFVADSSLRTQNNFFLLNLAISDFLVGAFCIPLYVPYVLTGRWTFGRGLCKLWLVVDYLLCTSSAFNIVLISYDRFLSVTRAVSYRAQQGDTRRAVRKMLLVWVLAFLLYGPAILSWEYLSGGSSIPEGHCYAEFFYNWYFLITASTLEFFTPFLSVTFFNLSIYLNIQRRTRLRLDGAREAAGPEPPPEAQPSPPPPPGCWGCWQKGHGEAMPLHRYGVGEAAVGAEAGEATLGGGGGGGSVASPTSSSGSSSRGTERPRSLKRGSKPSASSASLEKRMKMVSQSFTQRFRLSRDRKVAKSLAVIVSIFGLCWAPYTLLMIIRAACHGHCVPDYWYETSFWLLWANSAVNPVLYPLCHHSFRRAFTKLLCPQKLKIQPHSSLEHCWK
Histamine H3 receptor (Cavia porcellus), sequence (Q9JI35 whole entry): as the sequence (Q9JI35 whole entry) above
Histamine H3 receptor (Rattus norvegicus), sequence (Q9QYN8 whole entry): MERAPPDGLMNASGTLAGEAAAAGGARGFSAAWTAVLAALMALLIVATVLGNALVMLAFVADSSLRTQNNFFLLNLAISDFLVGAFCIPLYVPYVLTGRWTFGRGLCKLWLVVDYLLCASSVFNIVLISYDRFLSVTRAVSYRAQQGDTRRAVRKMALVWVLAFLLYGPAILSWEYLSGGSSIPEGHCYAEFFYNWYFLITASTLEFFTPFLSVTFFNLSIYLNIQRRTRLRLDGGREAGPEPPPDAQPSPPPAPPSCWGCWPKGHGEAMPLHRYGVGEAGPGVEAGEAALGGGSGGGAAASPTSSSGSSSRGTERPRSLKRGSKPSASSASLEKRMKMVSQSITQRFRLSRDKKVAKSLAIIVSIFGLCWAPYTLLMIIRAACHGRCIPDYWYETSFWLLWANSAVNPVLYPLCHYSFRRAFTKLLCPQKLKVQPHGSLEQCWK
Histamine H3 receptor (Rattus norvegicus, UniProt Q9QYN8), sequence (Q9QYN8 whole entry): as above

c1cc(Cc2cnc[nH]2)cc(-c2ccncc2)c1
Ki [1]: 0.427 µM

C[C@H]1CNC[C@@H]1c1c[nH]cn1
pD2 [2]: 7.5 | Ki [3]: 0.00251 µM

CC1(C)CN=C(c2cccc(Cc3cnc[nH]3)c2)OC1
Ki [1]: 2.51 µM

c1ccc(-c2cccc(Cc3cnc[nH]3)c2)cc1
EC50 [4]: 0.2 µM | Ki [1]: 0.0331 µM

C[C@@H](N)Cc1c[nH]cn1
pD2 [5]: 8.4

c1ccc(COCCCc2c[nH]cn2)cc1 [PROXYFAN]
Ki [6]: 0.01 µM

c1cc(Cc2c[nH]cn2)cc(C2=NCC3(CCCCC3)O2)c1
Ki [1]: 0.0562 µM

CC1(C)COC(c2cccc(Cc3c[nH]cn3)c2)=N1
EC50 [4]: 0.0158 µM | Ki [1]: 0.00398 µM

c1cc(Cc2cnc[nH]2)ccn1 [IMMETHRIDINE]
EC50 [7]: 0.0002 µM

CNCCc1cnc[nH]1
pD2 [2]: 7.8

CCCCc1c[nH]cn1
EC50 [7]: 0.0316 µM | Ki [1]: 0.0251 µM

CC(C)(C)CC(=O)c1cccc(Cc2cnc[nH]2)c1
Ki [8]: 0.00562 µM | Kb [9]: 0.955 µM | EC50 [4]: 0.0794 µM | Ki [1]: 0.0324 µM | IC50 [10]: 1.93 µM

CCCC#Cc1cccc(Cc2c[nH]cn2)c1
IC50 [11]: 1.64 µM | Ki [1]: 0.00316 µM | IC50 [10]: 0.644 µM

CNCCc1c[nH]cn1
Ki [3]: 0.00251 µM

N#Cc1cccc(Cc2c[nH]cn2)c1
Ki [1]: 0.155 µM

CC(C)(C)C#Cc1ccc(Cc2c[nH]cn2)cc1
Ki [1]: 0.537 µM

C(#Cc1cccc2ccccc12)c1cccc(Cc2c[nH]cn2)c1
Ki [1]: 1.74 µM

CC(C)(C)CC(=O)c1cccc(Cc2c[nH]cn2)c1
inhibition [12]: < 20% | inhibition [13]: < 40% | IC50 [11]: 1.1 µM

CC1(C)COC(c2ccc(Cc3c[nH]cn3)cc2)=N1
inhibition [14]: 17% | IC50 [11]: 2.52 µM | Ki [1]: 2.51 µM | IC50 [10]: 0.543 µM

C(#Cc1cccc(Cc2c[nH]cn2)c1)c1ccccc1
IC50 [11]: 2.76 µM | Ki [1]: 0.00182 µM | IC50 [10]: 0.488 µM

c1ccc(-c2cccc(Cc3c[nH]cn3)c2)nc1
Ki [1]: 0.0407 µM

c1cc(Cc2cnc[nH]2)cc(C2=NC(CC3CCCCC3)CO2)c1 (stereo unspecified)
Ki [1]: 0.708 µM

c1ccc(Cc2c[nH]cn2)cc1
Ki [1]: 0.162 µM

c1cc(Cc2cnc[nH]2)cc(C2=NC3(CCCC3)CO2)c1
Ki [1]: 0.0398 µM

N#Cc1ccc(Cc2c[nH]cn2)cc1
Ki [1]: 0.813 µM

CC(C)(C)C#Cc1cccc(Cc2c[nH]cn2)c1
inhibition [12]: < 20% | inhibition [13]: < 40% | Ki [8]: 0.00562 µM | Kb [9]: 0.0794 µM | EC50 [4]: 0.00794 µM | IC50 [11]: 1.86 µM | Ki [1]: 0.00447 µM | IC50 [10]: 1.78 µM

c1ccc(C[C@@H]2COC(c3cccc(Cc4cnc[nH]4)c3)=N2)cc1
Kb [9]: 2.24 µM | EC50 [4]: 0.0794 µM | Ki [1]: 0.0891 µM

Nc1ccc(Cc2c[nH]cn2)cc1
Ki [1]: 0.257 µM

c1nc(CC2CCNCC2)c[nH]1 [IMMEPIP]
Ki [1]: 0.000407 µM

Brc1ccc(Cc2c[nH]cn2)cc1
EC50 [4]: 0.631 µM | Ki [1]: 0.417 µM

CC1CC(C)(C)N=C(c2cccc(Cc3c[nH]cn3)c2)O1 (stereo unspecified)
inhibition [12]: < 20% | inhibition [13]: < 40% | Ki [8]: 0.00832 µM | Kb [9]: 0.00398 µM | EC50 [4]: 0.002 µM | IC50 [11]: 0.873 µM | Ki [1]: 0.00126 µM | IC50 [10]: 0.292 µM

CC(C)(C)CCC#C[C@@H]1C[C@H]1c1c[nH]cn1 (single isomer, unassigned) [CIPRALISANT]
Ki [1]: 0.00398 µM
